Data from PubChem BioAssay AID1918945 (Molecular Pharmacology Branch, DTP, NCI, 2023).

Test system: 883617-216-R-J1-PDC complex spheroid viability
Assay: Anticancer human tumor 883617-216-R-J1-PDC patient-derived bladder carcinoma cell line growth inhibition
Settings: for IC50: curve of first compound; for viability, T/C: stronger effect = lower value; active = viability on the fitted dose curve at most 10% of control; inactive = the rest
From the text: Multicellular complex tumor spheroid response to LSD1 Inhibitor Iadademstat in combination with a variety of drugs and investigational agents in selected tumor cell lines
The current study was undertaken to assess response to LSD1 inhibitors in combination with standard-of-care drugs and investigational agents in solid tumor complex spheroid models as well as in the K-562 leukemia. Complex spheroids include a stromal component modeled by human endothelial cells (HUVEC) and fibroblasts modeled by human mesenchymal stem cells (MSCs). The concentration ranges selected for each drug and investigational agent were based upon clinically achievable concentrations if the clinical Cmax of the agent was known.
Compounds. The drugs and investigational agents used in this study are listed on Table 1. All of the agents used, including staurosporine (NSC755774) and gemcitabine (NSC613327), were obtained from the Developmental Therapeutics Program, NCI. FDA-approved anticancer drugs are available from the NCI at http://dtp.nci.nih.gov/branches/dscb/oncology_drugset_explanation.html. Drugs and investigational agents were >95% pure by proton nuclear magnetic resonance (NMR) and liquid chromatography/mass spectrometry (LC/MS). Stock solutions were prepared at 400x in DMSO, stored at -70 degrees C, and diluted in fresh medium prior to their use. The final concentration of DMSO in cell culture wells never exceeded 0.25% (v/v). The FDA-approved anticancer drug set is available from the Developmental Therapeutics Program at https://dtp.cancer.gov/organization/dscb/obtaining/available_plates.htm. All drugs and investigational agents were tested over a range starting from a high concentration at or near the clinical Cmax and decreasing in half-log increments. If the clinical Cmax for an agent had not been determined, the highest concentration tested was 10 microM.
Cell Lines. The patient-derived cancer cell (PDC) lines: 292921-168-R-J2-PDC, K24384-001-R-PDC, and 521955-158-R2-J5-PDC pancreatic carcinomas, 556581-035-R-J1 ovarian carcinoma, 324938-238-R-J1-PDC, 855422-203-R-J1-PDC and 883617-216-R-J1-PDC urothelial bladder carcinomas, 743489-274-T-PDC renal cell carcinoma, 138582-R-J1 Merkel cell tumor, K60290-347-R-J1 and K57222-313-R-J1-PDC glioblastomas, 653999-131-R-J2-PDC, LG0703-F948-PDC, and 349418-098-R-PDC non-small cell lung carcinomas, 885512-296-R-J2-PDC, 171881-019-R-J1-PDC breast carcinomas and 186277-243-T-J2-PDC and 233499-124-R-J2-PDC colon carcinomas were obtained from the NCI Patient-Derived Models Repository (PDMR, https://pdmr.cancer.gov). The established cell lines NCI/ADR-RES (RRID:CVCL_14520 and OVCAR-5 (RRID:CVCL_1628) ovarian carcinomas, 786-O (RRID:CVCL_1051) and A498 (RRID:CVCL_A498) renal cell carcinoma, NCI-H211 (ATCC, cat. CRL-5824; RRID:CVCL_1529), NCI-H196 (ATCC, cat. CRL-5823, RRID:CVCL_1509), SW 1271 (ATCC, cat. CRL-2177, RRID:CVCL_1716) and NCI-H1876 (ATCC, cat. CRL-5902, RRID:CVCL_1503) small cell lung carcinomas, MDA-MB-231 (RRID:CVCL_0062) and MDA-MB-468 (RRID:CVCL_0419)breast carcinomas (10-12). Pooled donor human umbilical vein endothelial cells (HUVEC, Lonza, cat. CC-2519) and human mesenchymal stem cells (hMSC, Lonza, cat. PT-2501) were purchased from Lonza (Walkersville, MD).
Cell Culture. All cells were maintained in an incubator at 37 degrees C and 5% CO2 with 95% humidity. The PDC lines were cultured according to standard operating procedures established by the NCI PDMR (https://pdmr.cancer.gov). Briefly all PDCs were thawed and cultured in Matrigel-coated flasks prepared with a working solution of 1X Ham's F-12 nutrient mix, without supplementation (Invitrogen, Waltham, MA, cat. 11765054), 100 U/mL penicillin-streptomycin (Invitrogen, cat. 15140122), and 2.5% Matrigel (Corning Inc., Corning, NY, cat. 354248) for the first three passages. […]

[1] = second compound 0.1 µM, first compound 0.00316 µM
[2] = second compound 0.1 µM, first compound 0.01 µM
[3] = second compound 0.1 µM, first compound 0.0316 µM
[4] = second compound 0.1 µM, first compound 0.1 µM
[5] = second compound 0.316 µM, first compound 0.00316 µM
[6] = second compound 0.316 µM, first compound 0.01 µM
[7] = second compound 0.316 µM, first compound 0.0316 µM
[8] = second compound 0.316 µM, first compound 0.1 µM
[9] = second compound 1 µM, first compound 0.00316 µM
[10] = second compound 1 µM, first compound 0.01 µM
[11] = second compound 1 µM, first compound 0.0316 µM
[12] = second compound 1 µM, first compound 0.1 µM
[13] = second compound 3.16 µM, first compound 0.00316 µM
[14] = second compound 3.16 µM, first compound 0.01 µM
[15] = second compound 3.16 µM, first compound 0.0316 µM
[16] = second compound 3.16 µM, first compound 0.1 µM
[17] = second compound 10 µM, first compound 0.00316 µM
[18] = second compound 10 µM, first compound 0.01 µM
[19] = second compound 10 µM, first compound 0.0316 µM
[20] = second compound 10 µM, first compound 0.1 µM
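Note: exposure lasted seven days after three days of spheroid growth.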
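Throughout, for viability, T/C: 100% = DMSO vehicle control luminescence.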

CC[C@@]1(O)C(=O)OCc2c1cc1n(c2=O)Cc2cc3c(CN(C)C)c(O)ccc3nc2-1 + NC1CC1c1ccc(-c2cccc(O)c2)cc1
2.14 nM: IC50 (second compound 0.1 µM)
2.07 nM: IC50 (second compound 1 µM)
inactive: viability, T/C (second compound 0.1 µM, first compound 0.000316 µM) 97.4% | viability, T/C (second compound 0.1 µM, first compound 0.001 µM) 61.4% | viability, T/C [1] 45.5% | viability, T/C [2] 30.5% | viability, T/C [3] 24.3% | viability, T/C [4] 19.4% | viability, T/C (second compound 0.316 µM, first compound 0.000316 µM) 94.8% | viability, T/C (second compound 0.316 µM, first compound 0.001 µM) 73.4% | viability, T/C [5] 37.9% | viability, T/C [6] 30.4% | viability, T/C [7] 22.9% | viability, T/C [8] 19.1% | viability, T/C (second compound 1 µM, first compound 0.000316 µM) 93.7% | viability, T/C (second compound 1 µM, first compound 0.001 µM) 71.5% | viability, T/C [9] 36.9% | viability, T/C [10] 27.2% | viability, T/C [11] 24.6% | viability, T/C [12] 21.2% | viability, T/C (second compound 3.16 µM, first compound 0.000316 µM) 93.8% | viability, T/C (second compound 3.16 µM, first compound 0.001 µM) 57.6% | viability, T/C [13] 32.2% | viability, T/C [14] 27.9% | viability, T/C [15] 24.2% | viability, T/C [16] 17.9% | viability, T/C (second compound 10 µM, first compound 0.000316 µM) 76.1% | viability, T/C (second compound 10 µM, first compound 0.001 µM) 42.2% | viability, T/C [17] 35.3% | viability, T/C [18] 26.6% | viability, T/C [19] 24.2% | viability, T/C [20] 16.9%
2.24 nM: IC50 (second compound 0.316 µM)
1.42 nM: IC50 (second compound 3.16 µM)
0.862 nM: IC50 (second compound 10 µM)

COc1cc(C2c3cc4c(cc3C(OC3OC5COC(C)OC5C(O)C3O)C3COC(=O)C23)OCO4)cc(OC)c1O (stereo not given) + NC1CC1c1ccc(-c2cccc(O)c2)cc1
58 nM: IC50 (second compound 10 µM)
inactive: viability, T/C (second compound 0.1 µM, first compound 0.00949 µM) 99.3% | viability, T/C (second compound 0.1 µM, first compound 0.03 µM) 73% | viability, T/C (second compound 0.1 µM, first compound 0.0949 µM) 56.1% | viability, T/C (second compound 0.1 µM, first compound 0.3 µM) 43.9% | viability, T/C (second compound 0.1 µM, first compound 0.949 µM) 35.4% | viability, T/C (second compound 0.1 µM, first compound 3 µM) 31.6% | viability, T/C (second compound 0.316 µM, first compound 0.00949 µM) 103% | viability, T/C (second compound 0.316 µM, first compound 0.03 µM) 79.6% | viability, T/C (second compound 0.316 µM, first compound 0.0949 µM) 55.6% | viability, T/C (second compound 0.316 µM, first compound 0.3 µM) 41.9% | viability, T/C (second compound 0.316 µM, first compound 0.949 µM) 39.8% | viability, T/C (second compound 0.316 µM, first compound 3 µM) 34.9% | viability, T/C (second compound 1 µM, first compound 0.00949 µM) 106% | viability, T/C (second compound 1 µM, first compound 0.03 µM) 81% | viability, T/C (second compound 1 µM, first compound 0.0949 µM) 48.8% | viability, T/C (second compound 1 µM, first compound 0.3 µM) 38.8% | viability, T/C (second compound 1 µM, first compound 0.949 µM) 41.3% | viability, T/C (second compound 1 µM, first compound 3 µM) 31.4% | viability, T/C (second compound 3.16 µM, first compound 0.00949 µM) 90.6% | viability, T/C (second compound 3.16 µM, first compound 0.03 µM) 67.7% | viability, T/C (second compound 3.16 µM, first compound 0.0949 µM) 43.7% | viability, T/C (second compound 3.16 µM, first compound 0.3 µM) 37.7% | viability, T/C (second compound 3.16 µM, first compound 0.949 µM) 33.5% | viability, T/C (second compound 3.16 µM, first compound 3 µM) 27.9% | viability, T/C (second compound 10 µM, first compound 0.00949 µM) 82.4% | viability, T/C (second compound 10 µM, first compound 0.03 µM) 59.5% | viability, T/C (second compound 10 µM, first compound 0.0949 µM) 37.4% | viability, T/C (second compound 10 µM, first compound 0.3 µM) 44.5% | viability, T/C (second compound 10 µM, first compound 0.949 µM) 31.9% | viability, T/C (second compound 10 µM, first compound 3 µM) 28.5%
163 nM: IC50 (second compound 0.1 µM)
76.5 nM: IC50 (second compound 3.16 µM)
156 nM: IC50 (second compound 0.316 µM)
92.8 nM: IC50 (second compound 1 µM)

Nc1ncn(C2CC(O)C(CO)O2)c(=O)n1 (stereo not given) + NC1CC1c1ccc(-c2cccc(O)c2)cc1
inactive: viability, T/C [1] 104% | viability, T/C [2] 101% | viability, T/C [3] 87.3% | viability, T/C [4] 75.2% | viability, T/C (second compound 0.1 µM, first compound 0.316 µM) 64.7% | viability, T/C (second compound 0.1 µM, first compound 1 µM) 56.8% | viability, T/C [5] 110% | viability, T/C [6] 108% | viability, T/C [7] 87.5% | viability, T/C [8] 76.5% | viability, T/C (second compound 0.316 µM, first compound 0.316 µM) 67.7% | viability, T/C (second compound 0.316 µM, first compound 1 µM) 65.1% | viability, T/C [9] 110% | viability, T/C [10] 122% | viability, T/C [11] 96.8% | viability, T/C [12] 83% | viability, T/C (second compound 1 µM, first compound 0.316 µM) 65.9% | viability, T/C (second compound 1 µM, first compound 1 µM) 56.1% | viability, T/C [13] 107% | viability, T/C [14] 114% | viability, T/C [15] 92.9% | viability, T/C [16] 74.8% | viability, T/C (second compound 3.16 µM, first compound 0.316 µM) 60.5% | viability, T/C (second compound 3.16 µM, first compound 1 µM) 51.8% | viability, T/C [17] 107% | viability, T/C [18] 86.5% | viability, T/C [19] 74% | viability, T/C [20] 64.5% | viability, T/C (second compound 10 µM, first compound 0.316 µM) 61.7% | viability, T/C (second compound 10 µM, first compound 1 µM) 52.1%
> 1000 nM: IC50 (second compound 0.1 µM) | IC50 (second compound 0.316 µM) | IC50 (second compound 1 µM) | IC50 (second compound 3.16 µM) | IC50 (second compound 10 µM)
